In patent US20130287757A1, “COMPOSITION FOR THE REGENERATION OF ATROPHIC TISSUES” (MEDESTEA INTERNAZIONALE S.P.A., priority 2011, published 2013):

What was measured:
[1] = test system: biopsies from chronic atrophic ulcers (base and margins); assay: Western Blot phenotypic analysis of cultured biopsies; type: cell-based, animal; set-up: key: −−− = absence of band; −/+ = slight presence of band; + = thin band present; ++ = medium band present; +++ = broad band present; ++++ = high band present; +++++ = diffuse band present; details: 15 days culture
Procedure: The animal biopsy samples investigated are constituted of biopsies from chronic atrophic ulcers (base and margins). The biopsies were then sectioned into twelve parts ([…] controls, 1-11, and one sample, 12, to be treated for each patient) and suspended in a final volume of 25 ml of the respective culture solutions in plates (Lab-Tek chamber slides, Nunc, Kamstrup, Denmark) of 10 cm. Eleven types of control were prepared: • a negative control, untreated (1), i.e. treated exclusively with saline and antibiotics (as described above); • a positive control treated (2) with cell culture media commonly used for skin biopsies; • a control-3 treated with DMEM-LG/F 12 (1:1) culture medium and with the active ingredient described in Table 4. • a control-4 treated with DMEM-LG/F 12 (1:1) culture medium and with the active ingredient described in Table 5. • a control-5 treated with DMEM-LG/F 12 (1:1) culture medium and with the active ingredient described in Table 6. • a control-6 treated with DMEM-LG/F 12 (1:1) culture medium and with the active ingredient described in Table 7. • a control-8 treated with DMEM-LG/F 12 (1:1) culture medium and with the active ingredient described in Table 8. • a control-9 treated with DMEM-LG/F 12 (1:1) culture medium and with the active ingredient described in Table 9. • a control-10 treated with DMEM-LG/F12 (1:1) culture medium and with the active ingredient described in Table 10. • a control-11 treated with DMEM-LG/F12 (1:1) culture medium and with the active ingredient described in Table 11. One type of sample (12th portion of each biopsy investigated) was prepared, as follows: • sample-12: the biopsy findings of sample (12) were placed in plates (Lab-Tek chamber slides, Nunc, Kamstrup, Denmark) of 10 cm in culture medium in a solution Culture medium UL-MD. […] Two thirds of the culture medium was replaced every 7 days. All biopsy tissues used in culture constitute a possible optional substrate co-conditioning for the three-dimensional growth of the cellular samples investigated. […] After five washings, the membranes were incubated with the respective secondary antibodies (1:1000) conjugated with horseradish peroxidase (HRP, Santa Cruz, Calif., USA) for 1 h at room temperature, as shown below in Table 12.

[2] = test system: biopsies from chronic atrophic ulcers (base and margins); assay: FACS of cell suspensions from cultured biopsies; type: cell-based, animal; details: for CK-1, FACS absolute value / CK-5, FACS absolute value / CK-10, FACS absolute value / CK-14, FACS absolute value / Collagen type I, FACS absolute value / Collagen type IV, FACS absolute value: geometric mean +/− Standard Deviation; for CK-1, FACS fluorescence as percentage value / CK-5, FACS fluorescence as percentage value / CK-10, FACS fluorescence as percentage value / CK-14, FACS fluorescence as percentage value / Collagen type I, FACS fluorescence as percentage value / Collagen type IV, FACS fluorescence as percentage value: relative to the isotypes, nonspecific fluorescence deducted
Procedure: The animal biopsy samples investigated are constituted of biopsies from chronic atrophic ulcers (base and margins).
The biopsies were then sectioned into twelve parts ([…] controls, 1-11, and one sample, 12, to be treated for each patient) and suspended in a final volume of 25 ml of the respective culture solutions in plates (Lab-Tek chamber slides, Nunc, Kamstrup, Denmark) of 10 cm.
One type of sample (12th portion of each biopsy investigated) was prepared, as follows: • sample-12: the biopsy findings of sample (12) were placed in plates (Lab-Tek chamber slides, Nunc, Kamstrup, Denmark) of 10 cm in culture medium in a solution Culture medium UL-MD.
All the findings were incubated for 15 days in a Heraeus incubator thermostatically controlled to a temperature of 37° C. with an atmosphere containing 5% of constant supply of CO2 (v/v in air). Two thirds of the culture medium was replaced every 7 days. All biopsy tissues used in culture constitute a possible optional substrate co-conditioning for the three-dimensional growth of the cellular samples investigated.
Cellular suspensions obtained after digestion with collagenase were transferred to 15-ml test tubes (Nunc, Kamstrup, Denmark) and fixed in 4% paraformaldehyde solution for 30 minutes at room temperature. After three washings with PBS (pH 7.4), the cells were permeabilized with Triton 0.1% for 15 minutes, […] at room temperature. The pellets of the samples (Sample, 12) and of the controls (CTRLs, 1-11) were resuspended to a final concentration of 5×10^5 cells/ml in PBS and incubated with the following primary antibodies (ABD serotec, Kidlington-Oxford, UK): anti-collagen type I, anti-collagen type anti-IV and anti-cytokeratins (CK)-1, -5, -10, -14. All monoclonal antibodies conjugated with R-phycoerythrin (PE) or fluorescein isothiocyanate (FITC) were used. Specific controls with the corresponding isotypes were divided for each monoclonal antibody (ABD serotec). The samples were submitted to quantitative analysis by a laser cytofluorometer (Epics profile II, Coulter, Hialeath, FL) at 488 nm, where the percentage of fluorescent cells (PFC) reflects the geometric mean of the field of interest. The threshold values (gates) were established using control samples labelled with the corresponding isotype. All the values were analysed with a minimum threshold of 15 000 cells.
The results relating to the expression of collagen type I, collagen type IV and of cytokeratins (CK) 1, 5, 10 and 14 were expressed with a quantitative scale relative to the fluorescence expressed as a percentage value relative to the isotypes, after deducting the assumed nonspecific fluorescence (specific gate), as follows: […]

Row | Molecule | CK-1 expression, Western Blot band [1] | CK-10 expression, Western Blot band [1] | CK-14 expression, Western Blot band [1] | Collagen type I expression, Western Blot band [1] | CK-1, FACS absolute value [2] | CK-5, FACS absolute value [2] | CK-10, FACS absolute value [2] | CK-14, FACS absolute value [2] | Collagen type I, FACS absolute value [2] | Collagen type IV, FACS absolute value [2] | CK-1, FACS fluorescence as percentage value [2] [%] | CK-5, FACS fluorescence as percentage value [2] [%] | CK-10, FACS fluorescence as percentage value [2] [%] | CK-14, FACS fluorescence as percentage value [2] [%] | Collagen type I, FACS fluorescence as percentage value [2] [%] | Collagen type IV, FACS fluorescence as percentage value [2] [%] | Collagen type IV expression, Western Blot band [1] | CK-5 expression, Western Blot band [1]
1 | O=C(O)c1ccccc1O [CTRL 4, Salicylic acid] | ++ | + | + | + | 29 +/− 7 | 6 +/− 5 | 9 +/− 7 | 11 +/− 8 | 12 +/− 3 | 9 +/− 8 | 14 | 0 | 1.9 | 1.25 | 3.9 | 0.3 |  | 
2 | [O]=[Zn] [CTRL 6, Zinc oxide powder] | + |  | + |  | 14 +/− 11 | 2 +/− 2 | 1 +/− 1 | 10 +/− 7 | 3 +/− 2 | 12 +/− 8 | 3 | 0 | 0 | 1.7 | 0.3 | 1.5 | + | 
3 | CC1(C)[C@@H](O)CC[C@]2(C)[C@H]3C(=O)C=C4[C@@H]5C[C@@](C)(C(=O)O)CC[C@]5(C)CC[C@@]4(C)[C@]3(C)CC[C@@H]12 [CTRL 8, Glycyrrhetic acid] | −/+ | + | −/+ | −/+ | 5 +/− 3 | 3 +/− 1 | 4 +/− 1 | 2 +/− 1 | 6 +/− 4 | 7 +/− 5 | 1 | 1 | 0.5 | 0.1 | 0.9 | 0.9 | −/+ | −/+
4 | Papain FU (protein, UniProt P00784 134-345, looked up) Papain: IPEYVDWRQKGAVTPVKNQGSCGSCWAFSAVVTIEGIIKIRTGNLNEYSEQELLDCDRRSYGCNGGYPWSALQLVAQYGIHYRNTYPYEGVQRYCRSREKGPYAAKTDGVRQVQPYNEGALLYSIANQPVSVVLEAAGKDFQLYRGGIFVGPCGNKVDHAVAAVGYGPNYILIKNSWGTGWGENGYIRIKRGTGNSYGVCGLYTSSFYPVKN | + |  | + |  | 11 +/− 9 | 8 +/− 5 | 1 +/− 1 | 19 +/− 14 | 5 +/− 4- | 7 +/− 6 | 2 | 1.2 | 0 | 2 | 0.5 | 0.1 |  | +
